Laboratory results published in ChEMBL document CHEMBL1136505, “Myxovirescin analogues via macrocyclic ring-closing metathesis” (2003).
≈ marks a conversion by molar mass, not a printed value.

Experiments:
[1] = tested on: Schaalia meyeri; experiment: Minimum inhibitory concentration against Actinomyces meyeri (ATCC 61789) using agar method; type: functional
[2] = tested on: Prevotella bivia; experiment: Minimum inhibitory concentration against Bacteroides bivus (ATCC 64362) using agar method; type: functional
[3] = tested on: Pseudoflavonifractor capillosus; experiment: Minimum inhibitory concentration against Bacteroides capillosus (ATCC 60802) using agar method; type: functional
[4] = tested on: Hoylesella oralis; experiment: Minimum inhibitory concentration against Bacteroides oralis (ATCC 72708) using agar method; type: functional
[5] = tested on: Bacteroides ovatus; experiment: Minimum inhibitory concentration against Bacteroides ovatus (ATCC 66640) using agar method; type: functional
[6] = tested on: Corynebacterium sp.; experiment: Minimum inhibitory concentration against Corynebacterium sp. (ATCC 68984) using agar method; type: functional
[7] = tested on: Fusobacterium mortiferum; experiment: Minimum inhibitory concentration against Fusobacterium mortiferum (ATCC 63425) using agar method; type: functional
[8] = tested on: Escherichia coli; experiment: Minimum inhibitory concentration against Escherichia coli (ATCC NCTC 6571) using agar method; type: functional
[9] = tested on: Pasteurella multocida; experiment: Minimum inhibitory concentration against Pasteurella multocida (ATCC 61096) using agar method; type: functional
[10] = tested on: Pasteurella multocida; experiment: Minimum inhibitory concentration against Pasteurella multocida (ATCC 63560) using agar method; type: functional
[11] = tested on: Porphyromonas gingivalis; experiment: Minimum inhibitory concentration against Porphyromonas gingivalis sp.(ATCC D23C) using agar method; type: functional
[12] = tested on: Pasteurella sp.; experiment: Minimum inhibitory concentration against Pasteurella sp.(ATCC 69527) using agar method; type: functional
[13] = tested on: Pasteurella sp.; experiment: Minimum inhibitory concentration against Pasteurella sp.(ATCC 71886) using agar method; type: functional
[14] = tested on: Staphylococcus aureus; experiment: Minimum inhibitory concentration against Staphylococcus aureus (ATCC NCTC 6571) using agar method; type: functional
[15] = tested on: Pasteurella sp.; experiment: Minimum inhibitory concentration against Pasteurella sp.(ATCC 67777) using agar method; type: functional
[16] = tested on: Prevotella buccae; experiment: Minimum inhibitory concentration against Bacteroides buccae (ATCC 67792) using agar method; type: functional; conditions: Segatella buccae
[17] = tested on: Bacteroides uniformis; experiment: Minimum inhibitory concentration against Bacteroides uniformis (ATCC 62723) using agar method; type: functional
[18] = tested on: Pasteurella sp.; experiment: Minimum inhibitory concentration against Pasteurella sp.(ATCC 67535) using agar method; type: functional
[19] = tested on: Actinomyces sp.; experiment: Minimum inhibitory concentration against Actinomyces sp.(ATCC 70710) using agar method; type: functional
[20] = tested on: Fusobacterium sp.; experiment: Minimum inhibitory concentration against Fusobacterium sp.(ATCC 74714) using agar method; type: functional, fusobacterium species
[21] = tested on: Porphyromonas canoris; experiment: Minimum inhibitory concentration against Porphyromonas canoris (ATCC NCTC 12836) using agar method; type: functional
[22] = tested on: Propionibacterium; experiment: Minimum inhibitory concentration against Propionibacterium sp.(ATCC 72661) using agar method; type: functional
[23] = tested on: Porphyromonas canoris; experiment: Minimum inhibitory concentration against Porphyromonas canoris (ATCC NCTC 12835) using agar method; type: functional

| Structure (SMILES) | MIC [1] | MIC [2] | MIC [3] | MIC [4] | MIC [5] | MIC [6] | MIC [7] | MIC [8] | MIC [9] | MIC [10] | MIC [11] | MIC [12] | MIC [13] | MIC [14] | MIC [15] | MIC [16] | MIC [17] | MIC [18] | also measured |
| --- | --- | --- | --- | --- | --- | --- | --- | --- | --- | --- | --- | --- | --- | --- | --- | --- | --- | --- | --- |
| CCC[C@@H]1OC(=O)[C@@H](C)C[C@H](C)CCCCC(=O)CCC[C@@H](CC)CC/C=C(\COC)CC[C@@H](O)[C@@H](O)C[C@H](O)CNC1=O | 12.5 µg/mL (≈ 20 µM) | 6.25 µg/mL (≈ 9.99 µM) | 12.5 µg/mL (≈ 20 µM) | 6.25 µg/mL (≈ 9.99 µM) | 12.5 µg/mL (≈ 20 µM) | 12.5 µg/mL (≈ 20 µM) | > 50 µg/mL | 3.12 µg/mL (≈ 4.98 µM) | 1.56 µg/mL (≈ 2.49 µM) | 0.78 µg/mL (≈ 1.25 µM) | 1.56 µg/mL (≈ 2.49 µM) | 3.12 µg/mL (≈ 4.98 µM) | 0.78 µg/mL (≈ 1.25 µM) | > 50 µg/mL | 1.56 µg/mL (≈ 2.49 µM) | > 50 µg/mL | 12.5 µg/mL (≈ 20 µM) | 0.78 µg/mL (≈ 1.25 µM) | – |
| CCC[C@@H]1OC(=O)[C@@H](C)C[C@H](C)CCCCC(=O)CCC[C@@H](CC)/C=C/C=C(\COC)CC[C@@H](O)[C@@H](O)C[C@H](O)CNC1=O | > 50 µg/mL | > 50 µg/mL | 25 µg/mL (≈ 40.1 µM) | > 50 µg/mL | > 50 µg/mL | > 50 µg/mL | 12.5 µg/mL (≈ 20 µM) | 6.25 µg/mL (≈ 10 µM) | > 50 µg/mL | > 50 µg/mL | 25 µg/mL (≈ 40.1 µM) | 25 µg/mL (≈ 40.1 µM) | 12.5 µg/mL (≈ 20 µM) | > 50 µg/mL | 12.5 µg/mL (≈ 20 µM) | 12.5 µg/mL (≈ 20 µM) | > 50 µg/mL | 12.5 µg/mL (≈ 20 µM) | MIC [19]: > 50 µg/mL; MIC [20]: > 50 µg/mL; MIC [21]: 25 µg/mL (≈ 40.1 µM); MIC [22]: > 50 µg/mL; MIC [23]: 25 µg/mL (≈ 40.1 µM) |
